# Laboratory results published in EPA's ToxValDB 9.5 (doi:10.2903/j.efsa.2005.25r).
# What was measured:
# Apis mellifera = details: acute
# Coturnix coturnix = details: acute; duration: 5 days; oral; diet; mortality
# Cyprinodon variegatus = details: mortality
# Daphnia magna = details: chronic/long-term; duration: 21 days; growth
# Hyalella azteca = details: chronic/long-term; duration: 21 days; mortality
# Oncorhynchus mykiss = details: chronic/long-term; duration: 28 days; mortality
# Phasianus sp. = details: short-term; duration: 5 days; oral; feed; mortality
structure (smiles),measurement,setting,value
CN(C)C(=O)Nc1ccc(Cl)c(Cl)c1 [Diuron],LEL,Apis mellifera; dermal,> 100 µg/piece
same,LEL,"Apis mellifera; oral, unspecified",> 100 µg/piece
same,LC50,"Colinus virginianus; acute, duration: 5 days, oral, diet, mortality",346 mg/kg-day
same,LD50,"Colinus virginianus; acute, duration: 14 days, oral, diet, mortality",1100 mg/kg
same,NOEC,Colinus virginianus; reproduction developmental,24.1 mg/kg-day
same,LC50,Coturnix coturnix,> 5000 mg/kg
same,LC50,"Cyprinodon variegatus; acute, duration: 96 hours",6.7 µg/mL
same,NOEC,"Cyprinodon variegatus; chronic/long-term, duration: 32 days",1.7 mg/L
same,NOEC,Daphnia magna,0.096 mg/L
same,NOEC,Hyalella azteca,0.06 mg/L
same,NOEC,Oncorhynchus mykiss,0.41 mg/L
same,LC50,Phasianus sp.,> 5000 mg/kg
same,LC50,"Pontoscolex corethrurus; acute, mortality",> 798 mg/kg
same,NOEC,Pontoscolex corethrurus; chronic/long-term,14.4 mg/kg
same,LD50,"Rattus norvegicus; acute, mortality",2000 mg/kg
same,NOAEL,Rattus norvegicus; chronic,80 mg/kg-day
same,LOAEL,"Rattus norvegicus; chronic, duration: 2 years, F, hematological",1.7 mg/kg-day
same,NOAEL,"Rattus norvegicus; chronic, duration: 6 months, hematological",1.6 mg/kg-day
same,NOAEL,"Rattus norvegicus; chronic, duration: 6 months, oral, hematological",0.66 mg/kg-day
